{
  "source": "paper PMC3488358",
  "about": "(Chemical biology & drug design, 2013)",
  "key": {"[1]": {"test_system": "P. falciparum (D6 Clone)", "format": "cell-based, Plasmodium falciparum", "conditions": "read-out: P. falciparum (D6 Clone) IC50; chloroquine-sensitive D6 clone"}, "[2]": {"test_system": "P. falciparum (W2 Clone)", "format": "cell-based, Plasmodium falciparum", "conditions": "read-out: P. falciparum (W2 Clone) IC50; chloroquine-resistant W2 clone"}, "[3]": {"test_system": "Leishmania donovani promastigotes", "test": "In vitro antileishmanial activity, Alamar Blue assay", "format": "cell-based", "conditions": "for IC50: read-out: L. donovani IC50; for IC90: read-out: L. donovani IC90"}, "[4]": {"test_system": "Staphylococcus aureus ATCC 29213", "test": "Antibacterial susceptibility testing", "format": "cell-based"}, "[5]": {"test_system": "Methicillin-resistant S. aureus ATCC 33591 (MRSA)", "test": "Antibacterial susceptibility testing", "format": "cell-based, Staphylococcus aureus"}, "[6]": {"test_system": "Escherichia coli ATCC 35218", "test": "Antibacterial susceptibility testing", "format": "cell-based"}, "[7]": {"test_system": "Pseudomonas aeruginosa ATCC 27853", "test": "Antibacterial susceptibility testing", "format": "cell-based"}, "[8]": {"test_system": "Mycobacterium intracellulare ATCC 23068", "test": "Antibacterial susceptibility testing", "format": "cell-based"}, "[9]": {"test_system": "Candida albicans ATCC 90028", "test": "In vitro antifungal activity", "format": "cell-based"}, "[10]": {"test_system": "Candida glabrata ATCC 90030", "test": "In vitro antifungal activity", "format": "cell-based"}, "[11]": {"test_system": "Candida krusei ATCC 6258", "test": "In vitro antifungal activity", "format": "cell-based"}, "[12]": {"test_system": "Cryptococcus neoformans ATCC 90113", "test": "In vitro antifungal activity", "format": "cell-based"}, "[13]": {"test_system": "Aspergillus fumigatus ATCC 204305", "test": "In vitro antifungal activity", "format": "cell-based"}, "[14]": {"test_system": "HIV-1NL4.3 virus", "test": "Anti-HIV activity, p24 antigen capture ELISA in CEM-GFP cells", "format": "cell-based", "conditions": "CEM-GFP cells infected with HIV-1NL4.3, non-cytotoxic concentration"}},
  "note": "Where “and” joins values, the source holds several entries; their conditions need not be identical. Equal values may be shown once. Read-outs that look alike come from different tables or passages of the source.",
  "data": [
    {"smiles": "CCCCC[C@@H]1C[C@@H]2CC[C@@H]3C[C@H](C)NC(=N1)N32", "note": "(racemic) [17l, batzelladine K]", "values": [
      {"measurement": "IC50", "setting": "[1]", "result": 14.8, "unit": "µM"},
      {"measurement": "IC50", "setting": "[2]", "result": 13.7, "unit": "µM"},
      {"measurement": "IC50", "setting": "[3]; promastigotes", "result": 48.2, "unit": "µM"},
      {"measurement": "IC90", "setting": "[3]; promastigotes", "result": 124, "unit": "µM"},
      {"measurement": "S. aureus MBC", "setting": "[4]", "result": "- (“-” = Not active at the highest test concentration of 20 μg/mL)"},
      {"measurement": "S. aureus MIC", "setting": "[4]", "result": 80.32, "unit": "µM"},
      {"measurement": "IC50", "setting": "[4]; read-out: S. aureus IC50", "result": 64.1, "unit": "µM"},
      {"measurement": "MRSA MBC", "setting": "[5]", "result": "- (“-” = Not active at the highest test concentration of 20 μg/mL)"},
      {"measurement": "MRSA MIC", "setting": "[5]", "result": 80.3, "unit": "µM"},
      {"measurement": "IC50", "setting": "[5]; read-out: MRSA IC50", "result": "56 µM and 56.1 µM"},
      {"measurement": "E.coli IC50", "setting": "[6]", "result": "- (“-” = Not active at the highest test concentration of 20 μg/mL)"},
      {"measurement": "E.coli MBC", "setting": "[6]", "result": "- (“-” = Not active at the highest test concentration of 20 μg/mL)"},
      {"measurement": "E.coli MIC", "setting": "[6]", "result": "- (“-” = Not active at the highest test concentration of 20 μg/mL)"},
      {"measurement": "P. aeruginosa IC50", "setting": "[7]", "result": "- (“-” = Not active at the highest test concentration of 20 μg/mL)"},
      {"measurement": "P. aeruginosa MBC", "setting": "[7]", "result": "- (“-” = Not active at the highest test concentration of 20 μg/mL)"},
      {"measurement": "P. aeruginosa MIC", "setting": "[7]", "result": "- (“-” = Not active at the highest test concentration of 20 μg/mL)"},
      {"measurement": "M. intracellulare MBC", "setting": "[8]", "result": "- (“-” = Not active at the highest test concentration of 20 μg/mL)"},
      {"measurement": "M. intracellulare MIC", "setting": "[8]", "result": "- (“-” = Not active at the highest test concentration of 20 μg/mL)"},
      {"measurement": "IC50", "setting": "[8]; read-out: M. intracellulare IC50", "result": 79.5, "unit": "µM"},
      {"measurement": "Candida albicans MFC", "setting": "[9]", "result": "- (“-” = No activity at the highest test concentration of 20 μg/mL)"},
      {"measurement": "Candida albicans MIC", "setting": "[9]", "result": "- (“-” = No activity at the highest test concentration of 20 μg/mL)"},
      {"measurement": "Candida glabrata MFC", "setting": "[10]", "result": "- (“-” = No activity at the highest test concentration of 20 μg/mL)"},
      {"measurement": "Candida glabrata MIC", "setting": "[10]", "result": "- (“-” = No activity at the highest test concentration of 20 μg/mL)"},
      {"measurement": "Candida krusei MFC", "setting": "[11]", "result": "- (“-” = No activity at the highest test concentration of 20 μg/mL)"},
      {"measurement": "Candida krusei MIC", "setting": "[11]", "result": "- (“-” = No activity at the highest test concentration of 20 μg/mL)"},
      {"measurement": "Cryptococcus neoformans MFC", "setting": "[12]", "result": "- (“-” = No activity at the highest test concentration of 20 μg/mL)"},
      {"measurement": "Cryptococcus neoformans MIC", "setting": "[12]", "result": "- (“-” = No activity at the highest test concentration of 20 μg/mL)"},
      {"measurement": "IC50", "setting": "[12]; read-out: Cryptococcus neoformans IC50", "result": 76.2, "unit": "µM"},
      {"measurement": "Aspergillus fumigatus MFC", "setting": "[13]", "result": "- (“-” = No activity at the highest test concentration of 20 μg/mL)"},
      {"measurement": "Aspergillus fumigatus MIC", "setting": "[13]", "result": "- (“-” = No activity at the highest test concentration of 20 μg/mL)"},
      {"measurement": "anti-HIV activity (inhibition of HIV-1)", "setting": "[14]", "result": "no anti-HIV activity"}
    ]},
    {"smiles": "C[C@@H]1[C@H](O)[C@@H](C)/C=C/C=C/C=C/C=C/C=C/C=C/C=C/[C@H](O[C@@H]2O[C@H](C)[C@@H](O)[C@H](N)[C@@H]2O)C[C@@H]2O[C@](O)(C[C@@H](O)C[C@@H](O)[C@H](O)CC[C@@H](O)C[C@@H](O)CC(=O)O[C@H]1C)C[C@H](O)[C@H]2C(=O)O", "note": "[Amphotericin B]", "values": [
      {"measurement": "IC50", "setting": "[3]; Leishmania donovani", "result": 0.173, "unit": "µM"},
      {"measurement": "IC90", "setting": "[3]; Leishmania donovani", "result": 0.358, "unit": "µM"}
    ]},
    {"smiles": "N=C(N)c1ccc(OCCCCCOc2ccc(C(=N)N)cc2)cc1", "note": "[Pentamidine]", "values": [
      {"measurement": "IC50", "setting": "[3]; Leishmania donovani", "result": 2.94, "unit": "µM"},
      {"measurement": "IC90", "setting": "[3]; Leishmania donovani", "result": 5.88, "unit": "µM"}
    ]}
  ]
}
